From article PMC3392958, “Assay Format as a Critical Success Factor for Identification of Novel Inhibitor Chemotypes of Tissue-Nonspecific Alkaline Phosphatase from High-Throughput Screening” (Molecules, 2010)
Read-outs that look alike come from different tables or passages of the source.

Key:
TNAP [1] = target: T1, TNAP (Homo sapiens, UniProt P05186); test: TNAP luminescent assay (CDP-star substrate, 100 mM DEA); format: biochemical; details: for improvement in TNAP potency over parent compound: MLS-0091995 vs CID-646303, MLS-0111547 vs MLS-0004120
T1 construct: made in house; host or cells: COS-1 cells, transient expression; dialyzed serum-free conditioned medium
T1 sequence (P05186 18-501 limits assumed): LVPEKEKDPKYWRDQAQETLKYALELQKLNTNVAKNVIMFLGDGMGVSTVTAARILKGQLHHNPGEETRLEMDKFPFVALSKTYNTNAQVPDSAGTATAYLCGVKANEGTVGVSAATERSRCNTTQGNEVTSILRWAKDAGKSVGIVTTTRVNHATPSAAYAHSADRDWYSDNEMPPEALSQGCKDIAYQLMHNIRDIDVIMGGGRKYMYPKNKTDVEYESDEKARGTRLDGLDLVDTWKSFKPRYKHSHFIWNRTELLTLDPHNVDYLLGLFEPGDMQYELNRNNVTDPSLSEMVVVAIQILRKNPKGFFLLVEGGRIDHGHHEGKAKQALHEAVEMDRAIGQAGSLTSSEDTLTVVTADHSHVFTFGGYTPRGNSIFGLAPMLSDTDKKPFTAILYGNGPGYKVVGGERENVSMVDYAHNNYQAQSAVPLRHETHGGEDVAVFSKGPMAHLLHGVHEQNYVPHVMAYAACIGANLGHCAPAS
Experimental: (§1) Development of the novel luminescent TNAP assay using CDP-star substrate and detailed protocol of its application for HTS is described in more detail elsewhere. […] Briefly, the assay was 50 μM CDP-star substrate in assay buffer containing 100 mM DEA-HCl (pH 9.8), 1 mM MgCl2, and 20 μM ZnCl2. The luminescence signal was measured after a 30-min incubation at room temperature on an EnVision plate reader (PerkinElmer, Waltham, MA). […] Detailed protocols can be found in the respective AIDs, however, the final buffer conditions were 100 mM DEA, pH 9.8, 1.0 mM MgCl2, 0.02 mM ZnCl2 for both PLAP and IAP.

human PLAP = target: T2, human PLAP (Homo sapiens, UniProt P05187); test: PLAP luminescent assay (CDP-star); format: biochemical
T2 construct: made in house; host or cells: COS-1 cells, transient expression; dialyzed serum-free conditioned medium
Experimental: (§2) Selectivity of Primary Actives Against other Phosphatases: To assess the selectivity of compounds across the alkaline phosphatase family, luminescent assays were developed for human PLAP and human IAP with the same CDP-Star reagent.
as §1

TNAP [2] = target: T1, TNAP; test: TNAP colorimetric malachite green phosphate detection (MG) assay; format: biochemical; details: fresh solid samples from vendors; read-out: IC50 SAR-MG
Experimental: (§3) The colorimetric TNAP assay was performed as previously described with slight modifications.

TNAP [3] = target: T1, TNAP; parameters: method as in PMID 19556612; details: three DEA concentrations tested; cited from earlier work
IAP = target: T3, IAP (Homo sapiens, UniProt P09923); test: IAP luminescent assay (CDP-star); format: biochemical
T3 construct: made in house; host or cells: COS-1 cells, transient expression; dialyzed serum-free conditioned medium
T3 sequence (P09923 20-503 limits assumed): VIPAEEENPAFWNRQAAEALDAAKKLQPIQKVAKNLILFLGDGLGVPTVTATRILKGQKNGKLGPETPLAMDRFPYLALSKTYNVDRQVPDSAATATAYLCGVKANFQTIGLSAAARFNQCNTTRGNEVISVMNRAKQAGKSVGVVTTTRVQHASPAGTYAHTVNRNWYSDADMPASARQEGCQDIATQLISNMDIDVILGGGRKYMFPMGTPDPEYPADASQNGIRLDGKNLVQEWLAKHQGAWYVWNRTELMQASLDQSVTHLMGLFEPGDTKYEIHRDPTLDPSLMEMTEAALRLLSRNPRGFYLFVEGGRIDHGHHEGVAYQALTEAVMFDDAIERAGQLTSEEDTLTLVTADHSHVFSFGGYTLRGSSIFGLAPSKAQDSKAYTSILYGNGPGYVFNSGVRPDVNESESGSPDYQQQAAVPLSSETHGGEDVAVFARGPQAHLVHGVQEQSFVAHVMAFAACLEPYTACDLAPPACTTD
Experimental: as §2, §1

TNAP [4] = target: T1, TNAP; test: TNAP colorimetric assay (pNPP substrate, OD405, 1M DEA); format: biochemical
Experimental: as §3

[5] = optimized pyrazole series, read-out: TNAP Lumi IC50
[6] = catechol series, read-out: PLAP IC50
[7] = read-out: Selectivity Panel IC50 PLAP
[8] = phtalimide triazole series, read-out: IC50 IAP-Lumi
[9] = read-out: Selectivity Panel IC50 IAP
[10] = compounds from MLSMR in liquid form, read-out: IC50 HTS-Lumi
[11] = phtalimide triazole series, read-out: IC50 TNAP- Lumi
[12] = read-out: Selectivity Panel IC50 TNAP
[13] = compounds from MLSMR in liquid form, read-out: IC50 HTS-Color
[14] = fresh solid samples from vendors, read-out: IC50 SAR-Color
[15] = catechol series, read-out: IAP IC50
[16] = bisarylsulfonamide series, NA = inactive (up to 100 µM), read-out: TNAP-Lumi IC50
[17] = fresh solid samples from vendors, read-out: IC50 SAR-Lumi
[18] = TNAP, read-out: IC50 (Figure 6, pyrazole series optimization)
[19] = luminescence-based assay, 0.1M DEA, read-out: TNAP IC50

T2 sequence (P05187 23-506 limits assumed): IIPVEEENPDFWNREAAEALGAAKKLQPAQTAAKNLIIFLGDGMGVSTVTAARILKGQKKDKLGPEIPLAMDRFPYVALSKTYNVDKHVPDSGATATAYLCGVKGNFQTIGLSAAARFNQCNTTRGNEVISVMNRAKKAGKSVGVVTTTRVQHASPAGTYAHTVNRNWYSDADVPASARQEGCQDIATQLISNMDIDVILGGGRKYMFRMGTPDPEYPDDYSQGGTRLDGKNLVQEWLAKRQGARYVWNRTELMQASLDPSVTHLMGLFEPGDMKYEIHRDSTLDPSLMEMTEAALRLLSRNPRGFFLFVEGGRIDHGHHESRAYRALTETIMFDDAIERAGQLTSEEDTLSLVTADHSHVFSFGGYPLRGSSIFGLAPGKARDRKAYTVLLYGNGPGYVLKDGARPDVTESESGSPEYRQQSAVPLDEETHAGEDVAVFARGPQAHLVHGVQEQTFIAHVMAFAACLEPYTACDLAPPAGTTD

CN(C)C(=O)c1cc(-c2ccc(Cl)cc2Cl)n[nH]1 [MLS-0146148]
IC50 (TNAP [1]; [5]): 75 nM

O=C(CNc1nc2ccccc2[nH]1)c1ccc(O)c(O)c1 [Compound 2]
IC50 (human PLAP; [6]): 9100 nM

NNC(=O)c1cc(-c2ccc(Cl)cc2Cl)n[nH]1 [MLS-0146145]
IC50 (TNAP [1]; [5]): 52 nM

O=C1C2CC=CCC2C(=O)N1c1n[nH]c(Cc2ccccc2)n1 (centres unmarked) [MLS-0067142]
IC50 (TNAP [2]): > 100000 nM
IC50 (human PLAP; [7]): 3100 nM
mechanism of TNAP inhibition with respect to DEA (TNAP [3]): competitive
IC50 (IAP; [8]): 540 nM
IC50 (IAP; [9]): 540 nM
IC50 (TNAP [1]; [10]): 240 nM
IC50 (TNAP [1]; [11]): 210 nM
IC50 (TNAP [1]; [12]): 190 nM
IC50 (TNAP [4]; [13]): > 100000 nM
IC50 (TNAP [4]; [14]): > 100000 nM

CC(C)NC(=O)c1cc(-c2ccc(Cl)cc2Cl)n[nH]1 [MLS-0146149]
IC50 (TNAP [1]; [5]): 24 nM

O=C(NCCO)c1cc(-c2ccc(Cl)cc2Cl)n[nH]1 [MLS-0146161]
IC50 (TNAP [1]; [5]): 20 nM

O=C1C2CC=CCC2C(=O)N1c1nnc(-c2cccnc2)[nH]1 (centres unmarked) [MLS-0091977]
selectivity for IAP over TNAP (IAP): 6 fold
IC50 (TNAP [1]; [11]): 10500 nM

COc1ccc(OC)c(CNc2cnc3ccccc3c2)c1 [MLS-0111667]
activity against TNAP in vitro (TNAP [1]; luminescence-based assay): inactive

O=C(Cn1ccnc1)c1ccc(O)c(O)c1 [Compound 1]
IC50 (human PLAP; [6]): 2100 nM
IC50 (IAP; [15]): 30200 nM

COc1ccc(OC)c(S(=O)(=O)Nc2cccnc2)c1 [MLS-0068486]
reduction in TNAP potency compared with the lead structure CID-2931238 (TNAP [1]): roughly 4 fold
IC50 (TNAP [1]; [16]): 920 nM

COc1ccc(C)cc1S(=O)(=O)Nc1cccnc1 [MLS-0010847]
IC50 (TNAP [2]): 950 nM
IC50 (human PLAP; [7]): > 100000 nM
IC50 (IAP; [9]): > 100000 nM
IC50 (TNAP [1]; [10]): 1800 nM
IC50 (TNAP [1]; [17]): 930 nM
IC50 (TNAP [1]; [12]): 930 nM
IC50 (TNAP [4]; [13]): 710 nM
IC50 (TNAP [4]; [14]): 830 nM

COc1cccc(S(=O)(=O)Nc2cnc3ccccc3c2)c1 [MLS-0090844]
reduction in TNAP potency compared with the lead structure CID-2931238 (TNAP [1]): 100 fold
IC50 (TNAP [1]; [16]): 25700 nM

O=C(O)c1[nH]nc2c1COc1ccccc1-2 [MLS-0004120]
IC50 (TNAP [1]; [18]): 1300 nM
IC50 (TNAP [1]; [19]): 1330 nM

O=C1C2C3C=CC(C3)C2C(=O)N1c1n[nH]c(CCc2ccccc2)n1 (centres unmarked) [MLS-0091982]
IC50 (TNAP [1]; [11]): 30600 nM

COc1ccc(S(=O)(=O)Nc2cnc3ccccc3c2)cc1OC [MLS-0090842]
activity against TNAP in vitro (TNAP [1]; luminescence-based assay): inactive

COC(=O)c1cc(-c2ccc(Cl)cc2Cl)n[nH]1 [MLS-0091995]
improvement in TNAP potency over parent compound (TNAP [1]): 2 fold
IC50 (TNAP [1]; [19]): 500 nM

Oc1cc(-c2cccc3ccccc23)[nH]n1 [MLS-0039961]
IC50 (TNAP [2]): 74000 nM
IC50 (human PLAP; [7]): > 100000 nM
mechanism of TNAP inhibition with respect to DEA (TNAP [3]): noncompetitive
IC50 (IAP; [9]): > 100000 nM
IC50 (TNAP [1]; [10]): 3200 nM
IC50 (TNAP [1]; [17]): 4600 nM
IC50 (TNAP [4]; [13]): 21000 nM
IC50 (TNAP [4]; [14]): 46000 nM

O=C1C2CC=CCC2C(=O)N1c1nnc[nH]1 (centres unmarked) [MLS-0091980]
activity against IAP (IAP): elimination of activity
IC50 (IAP; [8]): > 100000 nM
activity against TNAP in vitro (TNAP [1]; luminescence-based assay): elimination of activity
IC50 (TNAP [1]; [11]): > 100000 nM

O=C1c2ccccc2C(=O)N1c1nc(Cc2ccccc2)n[nH]1 [MLS-0091978]
IC50 (TNAP [1]; [11]): 670 nM

O=C(c1[nH]nc2c1COc1ccccc1-2)N1CCCC1 [MLS-0111547]
improvement in TNAP potency over parent compound (TNAP [1]): 3 fold
IC50 (TNAP [1]; [18]): 500 nM
IC50 (TNAP [1]; [19]): 480 nM

O=C1C2CC=CCC2C(=O)N1c1nnc(CCc2ccccc2)[nH]1 (centres unmarked) [MLS-0091987]
selectivity for IAP over TNAP (IAP): 40 fold
IC50 (IAP; [8]): 720 nM
IC50 (TNAP [1]; [11]): 27900 nM

CCc1nccn1CC(=O)c1ccc(O)c(O)c1 [MLS-0315848]
selectivity as inhibitor of PLAP over IAP (human PLAP; catechol series): over 27 fold
selectivity as inhibitor of PLAP over TNAP (human PLAP; catechol series): over 27 fold
IC50 (human PLAP; [6]): 4200 nM

COc1ccc(OC)c(S(=O)(=O)Nc2ccc3ncccc3c2)c1 [MLS-0111639]
activity against TNAP in vitro (TNAP [1]; luminescence-based assay): eliminates activity

Cc1cnn(CC(=O)c2ccc(O)c(O)c2)c1 [MLS-0390945]
selectivity as inhibitor of PLAP over IAP (human PLAP; catechol series): > 25 fold
selectivity as inhibitor of PLAP over TNAP (human PLAP; catechol series): more than 50 fold

Cc1cc(C)nc(SCC(=O)c2ccc(O)c(O)c2)n1 [MLS-0315687]
IC50 (IAP; [15]): 49500 nM
IC50 (TNAP [1]; catechol series, read-out: TNAP IC50): 8600 nM

O=S(=O)(Nc1cnc2ccccc2c1)c1ccccc1 [MLS-0090845]
IC50 (TNAP [1]; [19]): > 100000 nM

O=C1C2CCCCC2C(=O)N1c1nc(Cc2ccccc2)n[nH]1 (centres unmarked) [MLS-0091981]
IC50 (IAP; [8]): 1100 nM
IC50 (TNAP [1]; [11]): 1570 nM

O=C(NCCO)c1cc(-c2cc(F)c(Cl)cc2Cl)n[nH]1 [MLS-0146165]
IC50 (TNAP [1]; [5]): 42 nM

O=C1C2CCCCC2C(=O)N1c1nc(CCc2ccccc2)n[nH]1 (centres unmarked) [MLS-0091984]
IC50 (TNAP [1]; [11]): > 100000 nM

COc1ccc(OC)c(C(=O)Nc2cnc3ccccc3c2)c1 [MLS-0111666]
activity against TNAP in vitro (TNAP [1]; luminescence-based assay): inactive

O=C1C2CC=CCC2C(=O)N1c1nnc(-c2ccco2)[nH]1 (centres unmarked) [MLS-0091966]
selectivity for IAP over TNAP (IAP): 10 fold
IC50 (IAP; [8]): 410 nM
IC50 (TNAP [1]; [11]): 4680 nM

Cc1nc2ccccc2n1CC(=O)c1ccc(O)c(O)c1 [MLS-0315854]
selectivity as inhibitor of PLAP over IAP (human PLAP; catechol series): 10 fold
selectivity as inhibitor of PLAP over TNAP (human PLAP; catechol series): 40 fold

O=C(O)c1cc(-c2ccccc2Cl)[nH]n1 [MLS-0005718]
IC50 (TNAP [2]): > 100000 nM
IC50 (human PLAP; [7]): > 100000 nM
mechanism of TNAP inhibition with respect to DEA (TNAP [3]): competitive
IC50 (IAP; [9]): 44000 nM
IC50 (TNAP [1]; [18]): 1000 nM
IC50 (TNAP [1]; [10]): 980 nM
IC50 (TNAP [1]; [17]): 740 nM
IC50 (TNAP [1]; [12]): 740 nM
IC50 (TNAP [4]; [13]): > 100000 nM
IC50 (TNAP [4]; [14]): > 100000 nM
